Assay: Functional Dkk1-LRP5-TCF-Luciferase Assay in U2OS Cells (table columns: A=MAX FOLD Induction/DMSO CONTROL; B=fold induction @ 2.0 uM; C=fold induction @ 20.0 uM)
Type: cell-based, Human
Conditions: Homo sapiens, U2OS; for fold induction at 2 µM: 2.0 uM compound; for fold induction at 20 µM: 20.0 uM compound
Procedure: Biological Evaluation—Functional Dkk1-LRP5-TCF-Luciferase Assay in U2OS Cells
U2OS Human Bone derived cells (Osteosarcoma) are grown in McCoy's 5A Medium (Modified), with L-glutamine (GIBCO Cat No. 16600-082)+1% Pen-Strep+5% FBS) plated at 1×10^7 cells/T175 cm flask. The next day, the cells are co-transfected overnight with the following plasmids: (a) Test reporter (16×TCF-TK-FireFly-Luci), (b) Internal Control Reporter (TK-Renilla-Luci), (c) Wnt3a and (d) Dkk1. GIBCO's Lipofectamine 2000 and OptiMEM were used for the transfection. After a minimum of 4 hr of transfection at 37° C., the plasmid-transfected cells are trypsinized, counted, and suspended in freezing medium (95% FBS+5% DMSO). The reporter cells are frozen at 1×10^7/ml concentrations, aliquoted into 0.5 ml or 2.5 ml/tube and stored at −70° C.
The following day, test compounds are added under HTS setup by Plate Track into 384 well plates (white, TC treated, Falcon plate) such that the final concentration of the compounds in 20 μL/well cell will be 5 μg/ml (final concentration of DMSO=0.25% and final compound concentration=20 μM). Vials of frozen reporter cells are thawed by warming the vial in a 37° C. water bath for 60-120 seconds with some shaking until the cells formed a suspension. The thawed cells are transferred into a cold 50 ml (or larger) tube and mixed well by gentle pipetting. The appropriate amount of cold Phenol Red Free RPMI medium-1640 (GIBCO, Cat # 11835-030) with L-glutamine is added, both with ˜5% FBS (GIBCO-BRL, Cat. # 16000-044), so that 20 μl of the final cell suspension will contain ˜5,000 cells. The cell dilution is done such that the final concentration of FBS was ˜5%. Diluted cells (20 μl) are added into each well in a 384 well plate. The plate is incubated at 37° C. under 5% CO2 for ˜20 h. Bright-Glo substrate, 2.5 μl/well is added, and the Fire Fly Luciferase is measured using VLUX (60 second exposure) immediately after the substrate was added. Test compounds are dissolved in DMSO (100%) and added to specified wells. Raw luciferase signal data obtained as relative luminescence units (RLUs) for the test compounds are normalized to the signal of the mean of the sample reporter cell plate with DMSO.
Active compounds have TCF-luciferase ratios of 2.5 fold or greater over DMSO. All compounds show a signal increase of at least 10% compared to a signal with only DMSO added.
A=MAX FOLD Induction/DMSO CONTROL
B=TCF ACTIVITY/DMSO CONTROL Fold induction @ 2.0 uM C=TCF ACTIVITY/DMSO CONTROL Fold induction @ 20.0 uM

| Structure (SMILES) | fold induction at 2 µM | fold induction at 20 µM |
| --- | --- | --- |
| c1ccc2cc(-c3cnc4c(c3)nc(-c3ccc5ccccc5c3)n4C3CCNCC3)ccc2c1 [2,6-di-2-naphthyl-3-piperidin-4-yl-3H-imidazo[4,5-b]pyridine] | 1.06 |  |
| Cn1c(=O)n(C2CCN(S(C)(=O)=O)CC2)c2nccc(-c3ccc4ccccc4c3)c21 [1-methyl-3-[1-(methylsulfonyl)piperidin-4-yl]-7-(2-naphthyl)-1,3-dihydro-2H-imidazo[4,5-b]pyridin-2-one] | 1.52 | 0.97 |
| c1ccc2cc(-c3ccnc4c3nc(-c3cccc5ccccc35)n4C3CCNCC3)ccc2c1 [2-(1-naphthyl)-7-(2-naphthyl)-3-piperidin-4-yl-3H-imidazo[4,5-b]pyridine] | 1.39 |  |
| FC(F)(F)c1cccc(Oc2cccc(-c3nc4c(-c5ccc6ccccc6c5)ccnc4n3C3CCNCC3)c2)c1 [7-(2-naphthyl)-3-piperidin-4-yl-2-{3-[3-(trifluoromethyl)phenoxy]phenyl}-3H-imidazo[4,5-b]pyridine] | 1.29 |  |
| Cc1nc2cc(-c3ccc4ccccc4c3)cnc2n1C1CCNCC1 [2-methyl-6-(2-naphthyl)-3-piperidin-4-yl-3H-imidazo[4,5-b]pyridine] | 1.06 | 1.17 |
| FC(F)(F)c1ccccc1-c1nc2c(-c3ccc4ccccc4c3)ccnc2n1C1CCNCC1 [7-(2-naphthyl)-3-piperidin-4-yl-2-[2-(trifluoromethyl)phenyl]-3H-imidazo[4,5-b]pyridine] | 1.72 |  |
| COC(=O)N1CCC(n2cnc3c(-c4ccc5ccccc5c4)ccnc32)CC1 [methyl 4-[7-(2-naphthyl)-3H-imidazo[4,5-b]pyridin-3-yl]piperidine-1-carboxylate] | 1.08 | 1.02 |
| c1ccc(-c2nc3c(-c4ccc5ccccc5c4)ccnc3n2C2CCNCC2)cc1 [7-(2-naphthyl)-2-phenyl-3-piperidin-4-yl-3H-imidazo[4,5-b]pyridine] | 1.23 | 0.05 |
| Cc1nc(-c2nc3c(-c4ccc5ccccc5c4)ccnc3n2C2CCNCC2)c[nH]1 [2-(2-methyl-1H-imidazol-4-yl)-7-(2-naphthyl)-3-piperidin-4-yl-3H-imidazo[4,5-b]pyridine] | 1.04 | 0.02 |
| O=[N+]([O-])c1cc(-c2nc3cc(-c4ccc5ccccc5c4)cnc3n2C2CCNCC2)ccc1N1CCOCC1 [2-(4-morpholin-4-yl-3-nitrophenyl)-6-(2-naphthyl)-3-piperidin-4-yl-3H-imidazo[4,5-b]pyridine] | 1.01 |  |
| COc1cccc(-c2nc3c(-c4ccc5ccccc5c4)ccnc3n2C2CCNCC2)c1 [2-(3-methoxyphenyl)-7-(2-naphthyl)-3-piperidin-4-yl-3H-imidazo[4,5-b]pyridine] | 1.25 |  |
| c1csc(-c2nc3c(-c4ccc5ccccc5c4)ccnc3n2C2CCNCC2)c1 [7-(2-naphthyl)-3-piperidin-4-yl-2-(2-thienyl)-3H-imidazo[4,5-b]pyridine] | 1.22 | 0.04 |
| O=c1[nH]cc(-c2nc3c(-c4ccc5ccccc5c4)ccnc3n2C2CCNCC2)c(=O)[nH]1 [5-[7-(2-naphthyl)-3-piperidin-4-yl-3H-imidazo[4,5-b]pyridin-2-yl]pyrimidine-2,4(1H,3H)-dione] | 1.94 | 1.91 |
| Cc1nc2c(-c3ccc4ccccc4c3)ccnc2n1C1CNC1 [3-azetidin-3-yl-2-methyl-7-(2-naphthyl)-3H-imidazo[4,5-b]pyridine] | 1.16 | 0.76 |
| c1ccc(N(c2ccccc2)c2ccc(-c3nc4c(-c5ccc6ccccc6c5)ccnc4n3C3CCNCC3)cc2)cc1 [4-[7-(2-naphthyl)-3-piperidin-4-yl-3H-imidazo[4,5-b]pyridin-2-yl]-N,N-diphenylaniline] | 1.89 |  |
| O=[N+]([O-])c1cccc(-c2nc3cc(-c4ccc5ccccc5c4)cnc3n2C2CCNCC2)c1 [6-(2-naphthyl)-2-(3-nitrophenyl)-3-piperidin-4-yl-3H-imidazo[4,5-b]pyridine] | 1.3 |  |
| CC(C)NC(=O)N1CCC(n2c(=O)[nH]c3c(-c4ccc5ccccc5c4)ccnc32)CC1 [N-isopropyl-4-[7-(2-naphthyl)-2-oxo-1,2-dihydro-3H-imidazo[4,5-b]pyridin-3-yl]piperidine-1-carboxamide] | 1.42 | 1.1 |

| Structure (SMILES) | fold induction at 2 µM | fold induction at 20 µM |
| --- | --- | --- |
| Cn1c(-c2nc3c(-c4ccc5ccccc5c4)ccnc3n2C2CCNCC2)cc2ccccc21 [2-(1-methyl-1H-indol-2-yl)-7-(2-naphthyl)-3-piperidin-4-yl-3H-imidazo[4,5-b]pyridine] | 1.17 |  |
| c1ccc2cc(-c3ccnc4c3nc(C3CCCCC3)n4C3CCNCC3)ccc2c1 [2-cyclohexyl-7-(2-naphthyl)-3-piperidin-4-yl-3H-imidazo[4,5-b]pyridine] | 1.88 |  |
| CC(C)c1ccc(-c2nc3c(-c4ccc5ccccc5c4)ccnc3n2C2CCNCC2)cc1 [2-(4-isopropylphenyl)-7-(2-naphthyl)-3-piperidin-4-yl-3H-imidazo[4,5-b]pyridine] | 1.03 |  |
| Cc1ccc(-c2nc3c(-c4ccc5ccccc5c4)ccnc3n2C2CCNCC2)cc1 [2-(4-methylphenyl)-7-(2-naphthyl)-3-piperidin-4-yl-3H-imidazo[4,5-b]pyridine] | 1.9 |  |
| c1ccc2cc(-c3ccnc4c3nc(-c3cccc5cccnc35)n4C3CCNCC3)ccc2c1 [8-[7-(2-naphthyl)-3-piperidin-4-yl-3H-imidazo[4,5-b]pyridin-2-yl]quinoline] |  | 1.01 |
| Cc1nc2c(-c3ccc4ccccc4c3)ccnc2n1[C@@H]1CCNC1 [2-methyl-7-(2-naphthyl)-3-[(3R)-pyrrolidin-3-yl]-3H-imidazo[4,5-b]pyridine] | 1.44 | 0.55 |
| CC(C)(C)c1ccc(-c2nc3c(-c4ccc5ccccc5c4)ccnc3n2C2CCNCC2)cc1 [2-(4-tert-butylphenyl)-7-(2-naphthyl)-3-piperidin-4-yl-3H-imidazo[4,5-b]pyridine] | 1.88 |  |
| Cn1c(=O)n(C2CCNCC2)c2nccc(-c3ccc4ccccc4c3)c21 [1-methyl-7-(2-naphthyl)-3-piperidin-4-yl-1,3-dihydro-2H-imidazo[4,5-b]pyridin-2-one] | 1.07 |  |
| O=[N+]([O-])c1ccccc1-c1nc2cc(-c3ccc4ccccc4c3)cnc2n1C1CCNCC1 [6-(2-naphthyl)-2-(2-nitrophenyl)-3-piperidin-4-yl-3H-imidazo[4,5-b]pyridine] | 1.13 |  |
| c1ccc2cc(-c3cnc4c(c3)nc(-c3cccc5ncccc35)n4C3CCNCC3)ccc2c1 [5-[6-(2-naphthyl)-3-piperidin-4-yl-3H-imidazo[4,5-b]pyridin-2-yl]quinoline] | 1.29 |  |
| c1c[nH]c(-c2nc3c(-c4ccc5ccccc5c4)ccnc3n2C2CCNCC2)c1 [7-(2-naphthyl)-3-piperidin-4-yl-2-(1H-pyrrol-2-yl)-3H-imidazo[4,5-b]pyridine] | 1.25 |  |
| c1ccc2cc(-c3ccnc4c3nc(-c3cnc5ccccc5c3)n4C3CCNCC3)ccc2c1 [3-[7-(2-naphthyl)-3-piperidin-4-yl-3H-imidazo[4,5-b]pyridin-2-yl]quinoline] | 1.44 |  |
| Cc1ccc(-c2nc3cc(-c4ccc5ccccc5c4)cnc3n2C2CCNCC2)c(C)c1 [2-(2,4-dimethylphenyl)-6-(2-naphthyl)-3-piperidin-4-yl-3H-imidazo[4,5-b]pyridine] | 1.31 |  |
| CC(C)(C)c1ccc(-c2nc3cc(-c4ccc5ccccc5c4)cnc3n2C2CCNCC2)cc1 [2-(4-tert-butylphenyl)-6-(2-naphthyl)-3-piperidin-4-yl-3H-imidazo[4,5-b]pyridine] | 1.13 |  |
| Fc1cccc(F)c1-c1nc2c(-c3ccc4ccccc4c3)ccnc2n1C1CCNCC1 [2-(2,6-difluorophenyl)-7-(2-naphthyl)-3-piperidin-4-yl-3H-imidazo[4,5-b]pyridine] | 1.11 |  |
| c1ccc2cc(-c3ccnc4c3nc(-c3ccnc5ccccc35)n4C3CCNCC3)ccc2c1 [4-[7-(2-naphthyl)-3-piperidin-4-yl-3H-imidazo[4,5-b]pyridin-2-yl]quinoline] | 1.07 |  |

Source: patent US20090069319A1, “IMIDAZOPYRIDINE ANALOGS AND THEIR USE AS AGONISTS OF THE WNT-BETA-CATENIN CELLULAR MESSAGING SYSTEM” (Wyeth, priority 2007, published 2009)
